Data taken from ChEMBL document CHEMBL1148293 (J Med Chem, 2004).

Tests used:
[1] = target: Kappa-type opioid receptor (Cavia porcellus, UniProt P41144); test: Binding affinity against opioid receptor kappa 1 using [3H]-U-69,593 as radioligand in guinea pig brain membranes.; type: cell membranes
[2] = target: Opioid receptors; delta & kappa (UniProt P41145+P41143); test: Selectivity ratio expressed as Ki of delta opioid receptor to that of kappa opioid receptor.; type: protein assay; settings: Cavia porcellus
[3] = test system: Opioid receptors; mu & delta; test: Selectivity ratio expressed as Ki of delta opioid receptor to that of mu opioid receptor.; type: protein assay; settings: Cavia porcellus
[4] = target: Mu-type opioid receptor (Cavia porcellus, UniProt P97266); test: Binding affinity against opioid receptor mu 1 using [3H]DAMGO as radioligand in guinea pig brain membranes.; type: cell membranes
Sequence of Mu-type opioid receptor (P97266 whole entry): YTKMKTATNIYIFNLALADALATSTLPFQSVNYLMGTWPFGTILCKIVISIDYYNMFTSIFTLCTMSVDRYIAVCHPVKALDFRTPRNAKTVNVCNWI

Sequence of Kappa-type opioid receptor (P41144 whole entry): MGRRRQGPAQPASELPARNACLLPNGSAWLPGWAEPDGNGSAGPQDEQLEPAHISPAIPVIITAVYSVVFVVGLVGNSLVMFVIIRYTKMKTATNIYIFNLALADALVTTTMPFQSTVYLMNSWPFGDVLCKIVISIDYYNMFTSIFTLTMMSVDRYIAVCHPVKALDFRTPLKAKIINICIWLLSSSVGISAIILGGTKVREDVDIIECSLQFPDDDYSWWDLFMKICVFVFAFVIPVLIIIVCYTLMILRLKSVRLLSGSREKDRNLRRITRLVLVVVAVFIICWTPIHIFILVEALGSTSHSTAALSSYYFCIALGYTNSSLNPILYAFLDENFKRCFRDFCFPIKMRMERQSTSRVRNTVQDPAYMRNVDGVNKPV
Sequence of Opioid receptors; delta & kappa (P41143 whole entry, looked up): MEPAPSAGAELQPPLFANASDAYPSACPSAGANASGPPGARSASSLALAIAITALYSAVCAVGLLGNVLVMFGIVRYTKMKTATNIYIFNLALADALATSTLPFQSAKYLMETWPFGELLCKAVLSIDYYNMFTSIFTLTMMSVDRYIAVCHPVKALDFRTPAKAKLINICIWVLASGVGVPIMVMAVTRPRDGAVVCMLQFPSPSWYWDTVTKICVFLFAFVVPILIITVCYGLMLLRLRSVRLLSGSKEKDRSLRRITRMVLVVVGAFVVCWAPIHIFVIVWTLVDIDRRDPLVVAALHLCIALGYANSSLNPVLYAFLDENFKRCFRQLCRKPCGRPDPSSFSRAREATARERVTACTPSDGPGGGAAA
Sequence of Opioid receptors; delta & kappa (P41145 whole entry, looked up): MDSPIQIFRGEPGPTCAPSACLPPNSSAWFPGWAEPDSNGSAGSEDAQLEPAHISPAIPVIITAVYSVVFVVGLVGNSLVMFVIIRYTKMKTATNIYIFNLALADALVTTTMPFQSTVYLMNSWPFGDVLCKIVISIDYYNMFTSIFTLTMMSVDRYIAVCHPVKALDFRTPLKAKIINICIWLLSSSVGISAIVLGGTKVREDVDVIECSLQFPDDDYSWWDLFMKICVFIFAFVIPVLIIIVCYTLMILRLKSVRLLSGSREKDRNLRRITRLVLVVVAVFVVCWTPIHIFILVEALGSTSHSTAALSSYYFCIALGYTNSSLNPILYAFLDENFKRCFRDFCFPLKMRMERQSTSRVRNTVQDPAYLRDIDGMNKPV

NC(=O)c1ccc2c(c1)[C@@]13CCCC[C@H]1[C@@H](C2)N(CC1CCC1)CC3
Ki [1]: 0.087 nM

N#Cc1ccc2c(c1)[C@@]13CCCC[C@H]1[C@@H](C2=O)N(CC1CCC1)CC3
Ki [1]: 400 nM

C#CCOc1ccc2c(c1)[C@@]13CCCC[C@H]1[C@@H](C2=O)N(CC#C)CC3
Selectivity [2]: > 20 | Ki [1]: 500 nM | Selectivity [3]: > 14 | Ki [4]: 710 nM

Nc1ccc2c(c1)[C@@]13CCCC[C@H]1[C@@H](C2)N(CC1CC1)CC3
Selectivity [2]: 830 | Ki [1]: 0.18 nM | Selectivity [3]: 120 | Ki [4]: 1.3 nM

Nc1ccc2c(c1)[C@@]13CCCC[C@H]1[C@@H](C2=O)N(CC1CCC1)CC3
Selectivity [2]: 130 | Ki [1]: 4.7 nM | Selectivity [3]: 26 | Ki [4]: 23 nM

CN1CC[C@]23CCCC[C@H]2[C@H]1Cc1ccc(O)cc13
Selectivity [2]: 1.8 | Selectivity [3]: 20

O=C1c2ccc(O)cc2[C@@]23CCCC[C@H]2[C@@H]1NCC3
Selectivity [2]: > 400 | Ki [1]: 25 nM | Selectivity [3]: > 500 | Ki [4]: 20 nM

O=C1c2ccc(O)cc2[C@@]23CCCC[C@H]2[C@@H]1N(CCF)CC3
Selectivity [2]: > 40 | Ki [1]: 250 nM | Selectivity [3]: > 18 | Ki [4]: 560 nM

CN1CC[C@]23CCCC[C@H]2[C@H]1Cc1ccc(N)cc13
Selectivity [2]: 14 | Ki [1]: 110 nM | Selectivity [3]: 190 | Ki [4]: 7.9 nM

NCc1ccc2c(c1)[C@@]13CCCC[C@H]1[C@@H](C2)N(CC1CCC1)CC3
Selectivity [2]: 48 | Ki [1]: 8.6 nM | Selectivity [3]: 48 | Ki [4]: 8.5 nM

c1cc2c(cc1-c1nnn[nH]1)[C@@]13CCCC[C@H]1[C@@H](C2)N(CC1CCC1)CC3
Ki [1]: 850 nM | Ki [4]: 1100 nM

NC(=O)c1ccc2c(c1)[C@@]13CCCC[C@H]1[C@@H](C2)N(CC1CC1)CC3
Selectivity [2]: 5.6 | Ki [1]: 0.18 nM | Selectivity [3]: 17 | Ki [4]: 0.059 nM

CN1CC[C@]23CCCC[C@H]2[C@H]1Cc1ccc(C#N)cc13
Selectivity [2]: > 5 | Ki [1]: 200 nM | Selectivity [3]: > 500 | Ki [4]: 20 nM

CN1CC[C@]23CCCC[C@H]2[C@H]1C(=O)c1ccc(O)cc13
Selectivity [2]: 26 | Ki [1]: 47 nM | Selectivity [3]: 57 | Ki [4]: 21 nM

O=C(Nc1ccc2c(c1)[C@@]13CCCC[C@H]1[C@@H](C2=O)N(CC1CCC1)CC3)c1ccccc1
Selectivity [2]: 49 | Ki [1]: 7.7 nM | Selectivity [3]: 86 | Ki [4]: 4.4 nM

NC(=O)c1ccc2c(c1)[C@@]13CCCC[C@H]1[C@@H](C2=O)N(CC1CCC1)CC3
Selectivity [2]: 19 | Ki [1]: 2.7 nM | Selectivity [3]: 20 | Ki [4]: 2.5 nM

CN1CC[C@]23CCCC[C@H]2[C@H]1Cc1ccc(C(N)=O)cc13
Selectivity [2]: 3.3 | Ki [1]: 3.9 nM | Selectivity [3]: 180 | Ki [4]: 0.073 nM

Nc1ccc2c(c1)[C@@]13CCCC[C@H]1[C@@H](C2)N(CC1CCC1)CC3
Selectivity [2]: 100 | Ki [1]: 1.8 nM | Selectivity [3]: 49 | Ki [4]: 3.7 nM

CN1CC[C@]23CCCC[C@H]2[C@H]1Cc1ccc(-c2nn[nH]n2)cc13
Selectivity [2]: > 26 | Selectivity [3]: > 26

C#CCN1CC[C@]23CCCC[C@H]2[C@H]1C(=O)c1ccc(O)cc13
Selectivity [2]: 38 | Ki [1]: 60 nM | Selectivity [3]: 12 | Ki [4]: 190 nM

O=C1c2ccc(-c3nn[nH]n3)cc2[C@@]23CCCC[C@H]2[C@@H]1N(CC1CCC1)CC3
Selectivity [2]: 5 | Selectivity [3]: 7.8

c1cc2c(cc1-c1nn[nH]n1)[C@@]13CCCC[C@H]1[C@@H](C2)N(CC1CCC1)CC3
Selectivity [2]: > 12 | Selectivity [3]: > 9

O=C1c2ccc(-c3nnn[nH]3)cc2[C@@]23CCCC[C@H]2[C@@H]1N(CC1CCC1)CC3
Ki [1]: 360 nM | Ki [4]: 230 nM

O=C1c2ccc(O)cc2[C@@]23CCCC[C@H]2[C@@H]1N(CC1CCC1)CC3
Selectivity [2]: 540 | Ki [1]: 0.48 nM | Selectivity [3]: 79 | Ki [4]: 3.3 nM

O=C1c2ccc(O)cc2[C@@]23CCCC[C@H]2[C@@H]1N(C[C@@H]1CCCO1)CC3
Selectivity [2]: 5.6 | Ki [1]: 0.18 nM | Selectivity [3]: 2.6 | Ki [4]: 0.38 nM

N#Cc1ccc2c(c1)[C@@]13CCCC[C@H]1[C@@H](C2)N(CC1CCC1)CC3
Selectivity [2]: 320 | Ki [1]: 6 nM | Selectivity [3]: 51 | Ki [4]: 37 nM

O=C1c2ccc(O)cc2[C@@]23CCCC[C@H]2[C@@H]1N(CCc1ccccc1)CC3
Selectivity [2]: 1.3 | Ki [1]: 7.7 nM | Selectivity [3]: 15 | Ki [4]: 0.63 nM

Oc1ccc2c(c1)[C@@]13CCCC[C@H]1[C@@H](C2)N(CC1CCC1)CC3 [BUTORPHAN]
Selectivity [2]: 75 | Ki [1]: 0.079 nM | Selectivity [3]: 26

COc1ccc2c(c1)[C@@]13CCCC[C@H]1[C@H](NCC3)C2=O
Selectivity [2]: 0.04 | Ki [1]: 390 nM | Selectivity [3]: 0.14 | Ki [4]: 110 nM

CN1CC[C@]23CCCC[C@H]2[C@H]1Cc1ccc(CN)cc13
Selectivity [2]: > 21 | Ki [1]: 120 nM | Selectivity [3]: > 38 | Ki [4]: 66 nM

CC(C)=CCN1CC[C@]23CCCC[C@H]2[C@H]1C(=O)c1ccc(O)cc13
Selectivity [2]: 150 | Ki [1]: 7.4 nM | Selectivity [3]: 58 | Ki [4]: 19 nM

O=C1c2ccc(O)cc2[C@@]23CCCC[C@H]2[C@@H]1N(CCCF)CC3
Ki [1]: 2.5 nM | Ki [4]: 20 nM

O=C1c2ccc(O)cc2[C@@]23CCCC[C@H]2[C@@H]1N(Cc1ccc2ccccc2c1)CC3
Selectivity [2]: > 13 | Ki [1]: 780 nM | Selectivity [3]: > 4.5 | Ki [4]: 2200 nM

O=C1c2ccc(O)cc2[C@@]23CCCC[C@H]2[C@@H]1N(CC1CC1)CC3
Selectivity [2]: 6 | Ki [1]: 24 nM | Selectivity [3]: 0.6 | Ki [4]: 240 nM

O=C1c2ccc(OCC3CCC3)cc2[C@@]23CCCC[C@H]2[C@@H]1N(CC1CCC1)CC3
Selectivity [2]: 35 | Ki [1]: 290 nM | Selectivity [3]: > 12 | Ki [4]: 800 nM

O=C(O)c1ccc2c(c1)[C@@]13CCCC[C@H]1[C@@H](C2=O)N(CC1CCC1)CC3
Selectivity [2]: 14 | Ki [1]: 59 nM | Selectivity [3]: 29 | Ki [4]: 28 nM

CN1CC[C@]23CCCC[C@H]2[C@H]1Cc1ccc(-c2nnn[nH]2)cc13
Ki [1]: 380 nM | Ki [4]: 380 nM
